# Data reported in publication PMC10740956, “A Multitarget Approach against Neuroinflammation: Alkyl Substituted Coumarins as Inhibitors of Enzymes Involved in Neurodegeneration” (Antioxidants, 2023).
# “And” between values parts separate entries of the source, which are not always exact repeats. Equal entries are not always repeated. “Also recorded” adds a separate entry of the source. Where two headings read alike, the source gives them in different places.
# Tests used:
# [1] = tested on: Interleukin-6 secretion from rat astrocytes pre-stimulated with LPS; experiment: IL-6 secretion by ELISA in LPS pre-stimulated astrocytes; assay type: cell-based; conditions: 24 h, compared to LPS alone
# Protocol: (§1) Cells were seeded (8 × 10^3/well) and were left to adhere for 24 h in 96-well plates (Falcon®, Corning Incorporated, NY, USA). The medium was removed, incubating the cell monolayer in the presence of increasing concentrations of DEP, AAZ, and test compounds (0–150 µM) for 24–72 h. In a second set of experiments, cells were pre-incubated in the presence of 0.1 µg/mL LPS (lipopolysaccharide from E. coli, purchased from Merck, Darmstadt, Germany) for 20 h and further exposed to DEP, AAZ, and test compounds in the same experimental conditions.
# The amounts (pg/mL) of interleukin-6 (IL-6) were analyzed in cell supernatants using an ELISA kit (Enzo Life Sciences Inc., Lausen, Switzerland) following the manufacturer’s instructions. Absorbance was read at 450 nm and cytokine concentration was determined. Data obtained were normalized on MTT optical densities.
# hCA I = hCA I (Homo sapiens, UniProt P00915); experiment: stopped flow CO2 hydrase assay, hCA I; assay type: biochemical; conditions: mean of 3 different assays
# hCA II = hCA II (Homo sapiens, UniProt P00918); experiment: stopped flow CO2 hydrase assay, hCA II; assay type: biochemical; conditions: mean of 3 different assays
# hCA VII = hCA VII (Homo sapiens, UniProt P43166); experiment: stopped flow CO2 hydrase assay, hCA VII; assay type: biochemical; conditions: mean of 3 different assays
# hCA IX = hCA IX (Homo sapiens, UniProt Q16790); experiment: stopped flow CO2 hydrase assay, hCA IX; assay type: biochemical; conditions: mean of 3 different assays
# hCA XII = hCA XII (Homo sapiens, UniProt O43570); experiment: stopped flow CO2 hydrase assay, hCA XII; assay type: biochemical
# hMAO-A = biological target: T1, hMAO-A (Homo sapiens, UniProt P21397); experiment: hMAO-A inhibition, recombinant enzyme, kynuramine substrate, fluorescence; assay type: biochemical; conditions: for IC50: mean ± SD of triplicate determinations
# T1 construct: purchased Sigma-Aldrich
# T1 sequence (P21397 1-527): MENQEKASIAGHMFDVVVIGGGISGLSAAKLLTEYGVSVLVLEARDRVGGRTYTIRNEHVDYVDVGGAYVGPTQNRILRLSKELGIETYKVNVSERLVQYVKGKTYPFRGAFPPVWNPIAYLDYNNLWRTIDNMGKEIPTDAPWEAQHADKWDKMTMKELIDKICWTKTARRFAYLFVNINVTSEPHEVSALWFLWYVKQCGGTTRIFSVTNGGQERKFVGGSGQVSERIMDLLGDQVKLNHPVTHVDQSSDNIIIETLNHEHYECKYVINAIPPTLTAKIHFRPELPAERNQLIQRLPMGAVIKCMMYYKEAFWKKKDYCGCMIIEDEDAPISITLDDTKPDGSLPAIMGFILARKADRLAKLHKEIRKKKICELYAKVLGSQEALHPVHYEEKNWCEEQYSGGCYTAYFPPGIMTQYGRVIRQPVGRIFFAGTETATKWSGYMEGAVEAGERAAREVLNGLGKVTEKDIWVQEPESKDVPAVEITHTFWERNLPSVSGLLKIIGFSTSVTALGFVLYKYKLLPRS
# hMAO-B = biological target: T2, hMAO-B (Homo sapiens, UniProt P27338); experiment: hMAO-B inhibition, recombinant enzyme, kynuramine substrate, fluorescence; assay type: biochemical; conditions: for SI (selectivity index for hMAO-B over hMAO-A): IC50 hMAO-A/IC50 hMAO-B; for IC50: mean ± SD of triplicate determinations
# T2 construct: purchased Sigma-Aldrich
# T2 sequence (P27338 1-520): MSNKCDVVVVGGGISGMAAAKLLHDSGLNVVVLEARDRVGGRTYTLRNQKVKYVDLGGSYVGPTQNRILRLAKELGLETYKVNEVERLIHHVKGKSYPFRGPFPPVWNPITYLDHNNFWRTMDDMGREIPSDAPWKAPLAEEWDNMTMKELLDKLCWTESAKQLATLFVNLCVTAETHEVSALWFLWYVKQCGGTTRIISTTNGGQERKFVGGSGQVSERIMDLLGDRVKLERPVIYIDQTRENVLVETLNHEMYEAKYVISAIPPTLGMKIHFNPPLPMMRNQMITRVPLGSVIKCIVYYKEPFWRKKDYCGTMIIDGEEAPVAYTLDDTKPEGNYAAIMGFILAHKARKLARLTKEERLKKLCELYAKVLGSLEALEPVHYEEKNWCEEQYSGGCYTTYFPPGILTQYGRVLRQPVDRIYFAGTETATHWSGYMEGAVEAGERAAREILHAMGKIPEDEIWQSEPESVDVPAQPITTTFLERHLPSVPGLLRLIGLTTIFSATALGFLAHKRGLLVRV
# AChE (electric eel) = biological target: T3, AChE (electric eel) (Electrophorus electricus, UniProt O42275); experiment: biochemical; conditions: for IC50: mean ± SD of triplicate determinations; for inhibition at 100 µM: read-out: inhibition of AChE at 100 µM, 100 µM
# T3 construct: from tissue
# BuChE (equine serum) = biological target: T4, BuChE (equine serum) (Equus caballus, UniProt P81908); experiment: biochemical; assay type: biochemical; conditions: for IC50: mean ± SD of triplicate determinations
# T4 construct: from tissue; host or cells: equine serum
# CTX/TNA2 rat astrocytes = experiment: Cell metabolic activity assay (MTT), non-inflammatory conditions; assay type: cell-based; conditions: 0-150 µM, 24-72 h
# [2] = tested on: CTX/TNA2 rat astrocytes pre-stimulated with LPS; experiment: Cell metabolic activity assay (MTT), LPS pre-stimulated astrocytes; assay type: cell-based; conditions: pre-stimulated with 0.1 µg/mL LPS 20 h, then compounds 24 and 72 h
# [3] = tested on: H2O2 generation in rat astrocytes pre-stimulated with LPS; experiment: Hydrogen peroxide measurement in supernatants of LPS pre-stimulated astrocytes; assay type: cell-based; conditions: 24 h
# Protocol: as §1
# At 24 h, cell supernatants were taken from the cultures used for the MTT assay. The quantitative determination of H2O2 released in supernatants was performed by means of a H2O2 colorimetric kit (cat. no. ADI-907-015, Enzo Life Sciences, Inc., Farmingdale, NY, USA). Then, 50 µL of supernatant/well was used and 100 µL of color reagent was added in each well. Next, wells were mixed and afterwards incubated for 30 min at r.t. The OD was measured following the manufacturer’s instructions.
# T4 sequence (P81908 whole entry): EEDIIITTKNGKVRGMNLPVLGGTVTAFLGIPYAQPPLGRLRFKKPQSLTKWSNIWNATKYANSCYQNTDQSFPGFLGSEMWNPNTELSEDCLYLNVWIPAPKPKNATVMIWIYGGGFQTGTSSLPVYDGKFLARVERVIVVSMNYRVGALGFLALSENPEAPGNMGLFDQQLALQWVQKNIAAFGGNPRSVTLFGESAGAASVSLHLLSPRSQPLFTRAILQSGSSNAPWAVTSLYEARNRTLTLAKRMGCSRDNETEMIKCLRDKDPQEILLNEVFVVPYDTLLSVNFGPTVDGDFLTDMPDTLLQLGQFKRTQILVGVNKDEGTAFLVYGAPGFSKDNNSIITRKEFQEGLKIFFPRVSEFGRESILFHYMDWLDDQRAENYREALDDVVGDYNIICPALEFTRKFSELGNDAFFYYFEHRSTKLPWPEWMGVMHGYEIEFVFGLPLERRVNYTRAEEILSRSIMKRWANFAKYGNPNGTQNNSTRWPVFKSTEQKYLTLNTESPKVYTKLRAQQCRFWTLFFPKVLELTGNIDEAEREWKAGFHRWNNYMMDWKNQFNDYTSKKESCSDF
# hCA I, sequence (P00915 whole entry): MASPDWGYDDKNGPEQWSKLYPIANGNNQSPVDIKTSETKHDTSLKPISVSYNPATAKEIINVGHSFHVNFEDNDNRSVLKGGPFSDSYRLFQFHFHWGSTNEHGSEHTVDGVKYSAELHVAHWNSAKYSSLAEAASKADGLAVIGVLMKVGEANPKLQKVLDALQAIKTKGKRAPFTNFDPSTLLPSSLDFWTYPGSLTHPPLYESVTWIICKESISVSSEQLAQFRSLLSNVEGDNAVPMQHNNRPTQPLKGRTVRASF
# T3 sequence (O42275 24-633): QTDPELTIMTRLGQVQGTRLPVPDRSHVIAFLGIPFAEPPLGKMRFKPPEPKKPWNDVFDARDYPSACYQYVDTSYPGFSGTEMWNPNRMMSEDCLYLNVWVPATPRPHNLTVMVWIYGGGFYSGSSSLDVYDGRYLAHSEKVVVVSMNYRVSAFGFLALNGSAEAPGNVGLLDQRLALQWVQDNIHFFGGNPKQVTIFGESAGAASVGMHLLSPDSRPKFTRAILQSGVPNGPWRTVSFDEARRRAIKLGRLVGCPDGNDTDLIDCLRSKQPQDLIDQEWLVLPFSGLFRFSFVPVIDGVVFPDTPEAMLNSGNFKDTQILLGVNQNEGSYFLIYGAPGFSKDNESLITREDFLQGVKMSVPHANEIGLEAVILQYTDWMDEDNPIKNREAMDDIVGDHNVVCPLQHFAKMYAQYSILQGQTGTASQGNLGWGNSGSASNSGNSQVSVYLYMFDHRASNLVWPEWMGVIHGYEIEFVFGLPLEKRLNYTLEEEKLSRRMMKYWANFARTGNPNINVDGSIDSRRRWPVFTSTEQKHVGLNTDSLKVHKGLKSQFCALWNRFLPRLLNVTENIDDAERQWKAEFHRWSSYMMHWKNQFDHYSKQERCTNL
# hCA VII, sequence (P43166 whole entry): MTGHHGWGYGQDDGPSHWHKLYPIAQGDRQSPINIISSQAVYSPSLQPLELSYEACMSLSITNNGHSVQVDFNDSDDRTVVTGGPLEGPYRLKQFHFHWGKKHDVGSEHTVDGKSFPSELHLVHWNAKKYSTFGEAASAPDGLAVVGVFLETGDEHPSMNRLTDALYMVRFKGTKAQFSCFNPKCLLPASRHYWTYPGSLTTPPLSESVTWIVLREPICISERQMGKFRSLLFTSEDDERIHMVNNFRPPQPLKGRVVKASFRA
# hCA XII, sequence (O43570 25-354): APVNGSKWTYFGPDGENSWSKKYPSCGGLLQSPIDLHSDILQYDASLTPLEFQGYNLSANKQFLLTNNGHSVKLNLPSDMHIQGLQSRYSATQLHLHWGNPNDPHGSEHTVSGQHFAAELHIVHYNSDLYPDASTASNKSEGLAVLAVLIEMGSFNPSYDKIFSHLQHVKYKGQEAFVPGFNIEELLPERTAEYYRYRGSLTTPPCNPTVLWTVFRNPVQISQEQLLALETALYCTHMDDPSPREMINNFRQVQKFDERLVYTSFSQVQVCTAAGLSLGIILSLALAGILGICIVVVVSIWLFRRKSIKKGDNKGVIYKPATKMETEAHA
compound,measurement,setting,value
"CC(=O)Nc1nnc(S(N)(=O)=O)s1 [AAZ, acetazolamide, reference compound]",IL-6 secretion,[1],the highest concentrations of AAZ are capable of decreasing IL-6 secretion in a significant manner
"C#CCCCOc1cc(=O)oc2ccccc12 [Compound 1, 4-(Pent-4-yn-1-yloxy)-2H-chromen-2-one]",Ki,hCA I,6.26 µM
same,Ki,hCA II,> 10 µM
same,Ki,hCA VII,0.0598 µM
same,Ki,hCA IX,0.0172 µM
same,Ki,hCA XII; mean of 3 different assays,0.0048 µM
same,IC50,hMAO-A,> 10 µM and 51.2 µM
same,SI (selectivity index for hMAO-B over hMAO-A),hMAO-B,<0.51
same,IC50,hMAO-B,> 100 µM
same,IC50,AChE (electric eel),> 100 µM
same,IC50,BuChE (equine serum),33 ± 1 µM
same,"cell metabolic activity (MTT), biocompatibility",CTX/TNA2 rat astrocytes,"good biocompatibility, with a cell metabolic activity significantly decreased only after 48 h and at the highest concentration tested (150 µM)"
"C#CCCCCOc1cc(=O)oc2ccccc12 [Compound 2, 4-(Hex-5-yn-1-yloxy)-2H-chromen-2-one]",Ki,hCA I,> 10 µM
same,Ki,hCA II,> 10 µM
same,Ki,hCA VII,0.0469 µM
same,Ki,hCA IX,0.009 µM
same,Ki,hCA XII; mean of 3 different assays,0.0048 µM
same,IC50,hMAO-A,> 10 µM and 10.8 µM
same,SI (selectivity index for hMAO-B over hMAO-A),hMAO-B,0.42
same,IC50,hMAO-B,> 10 µM and 25.9 µM
same,IC50,AChE (electric eel),> 100 µM
same,BuChE mode of inhibition,BuChE (equine serum); Cornish-Bowden plots,mixed inhibition mechanism
same,Kib BuChE (inhibitor binding the ES complex),BuChE (equine serum); Cornish-Bowden plots,25 ± 3 µM
same,Ki,"BuChE (equine serum); Cornish-Bowden plots, read-out: Kia BuChE (inhibitor binding the free enzyme) (converted)",13 µM
same,IC50,BuChE (equine serum),21 ± 1 µM
same,"cell metabolic activity (MTT), biocompatibility",CTX/TNA2 rat astrocytes,"good biocompatibility, with a cell metabolic activity significantly decreased only after 48 h and at the highest concentration tested (150 µM)"
same,cell metabolic activity (MTT) versus LPS only control,[2],able to counteract the LPS-induced increase in cell metabolic activity
"C#CCOc1ccc2oc(=O)ccc2c1 [Compound 3, 6-(Prop-2-ynyloxy)-2H-chromen-2-one]",Ki,hCA VII,0.0617 µM
same,IC50,hMAO-A,> 10 µM and 40.2 µM
same,IC50,hMAO-B,> 10 µM and 65.4 µM
same,IC50,AChE (electric eel),> 100 µM
same,IC50,BuChE (equine serum),> 100 µM
same,"cell metabolic activity (MTT), biocompatibility",CTX/TNA2 rat astrocytes,well tolerated up to 48 h and display a good biocompatibility at the longest exposure time (72 h)
same,cell metabolic activity (MTT) versus LPS only control,[2],able to counteract the LPS-induced increase in cell metabolic activity
"CC#CCOc1ccc2oc(=O)ccc2c1 [Compound 4, 6-(But-2-yn-1-yloxy)-2H-chromen-2-one]",Ki,hCA I,> 10 µM
same,Ki,hCA II,> 10 µM
same,Ki,hCA VII,0.0633 µM
same,Ki,hCA IX,0.0242 µM
same,Ki,hCA XII; mean of 3 different assays,0.0043 µM
same,IC50,hMAO-A,> 10 µM and 55.7 µM
same,SI (selectivity index for hMAO-B over hMAO-A),hMAO-B,4.6
same,IC50,hMAO-B,> 10 µM and 12.1 µM
same,IC50,AChE (electric eel),> 100 µM
same,IC50,BuChE (equine serum),> 100 µM
same,"cell metabolic activity (MTT), biocompatibility",CTX/TNA2 rat astrocytes,well tolerated up to 48 h and display a good biocompatibility at the longest exposure time (72 h)
same,H2O2 generation,[3]; 10 µM,restoring it to the untreated control levels
"C#CCOc1ccc2ccc(=O)oc2c1 [Compound 5, 7-(Prop-2-ynyloxy)-2H-chromen-2-one]",Ki,hCA I,> 10 µM
same,Ki,hCA II,> 10 µM
same,Ki,hCA VII,0.0519 µM
same,Ki,hCA XII; mean of 3 different assays,0.73 µM
same,IC50,hMAO-B,5.79 ± 0.26 µM
same,IC50,AChE (electric eel),> 100 µM
same,IC50,BuChE (equine serum),> 100 µM
same,"cell metabolic activity (MTT), biocompatibility",CTX/TNA2 rat astrocytes,cell metabolic activity significantly decreases at all the concentrations tested at 48 h
same,H2O2 generation,[3]; 0.01 µM,restoring it to the untreated control levels
same,IL-6 secretion,[1],had an effect on IL-6 release
"CC#CCOc1ccc2ccc(=O)oc2c1 [Compound 6, 7-(But-2-yn-1-yloxy)-2H-chromen-2-one]",Ki,hCA I,> 10 µM
same,Ki,hCA II,> 10 µM
same,Ki,hCA VII,0.0682 µM
same,Ki,hCA IX,0.0093 µM
same,Ki,hCA XII; mean of 3 different assays,0.0068 µM
same,IC50,hMAO-A,21.3 ± 0.77 µM
same,SI (selectivity index for hMAO-B over hMAO-A),hMAO-B,85.3
same,IC50,hMAO-B,0.25 ± 0.017 µM
same,IC50,AChE (electric eel),> 100 µM
same,IC50,BuChE (equine serum),> 100 µM
same,"cell metabolic activity (MTT), biocompatibility",CTX/TNA2 rat astrocytes,cell metabolic activity significantly decreases at all the concentrations tested at 48 h
same,H2O2 generation,[3]; 150 µM,restoring it to the untreated control levels
"CCC#CCOc1ccc2ccc(=O)oc2c1 [Compound 7, 7-(Pent-2-yn-1-yloxy)-2H-chromen-2-one]",Ki,hCA I,> 10 µM
same,Ki,hCA II,> 10 µM
same,Ki,hCA VII,0.0635 µM
same,Ki,hCA IX,0.013 µM
same,Ki,hCA XII,0.0068 µM
same,IC50,hMAO-A,11.2 ± 0.39 µM
same,IC50,hMAO-B,0.008 ± 0.00062 µM
same,inhibition at 100 µM,AChE (electric eel),50%
same,IC50,BuChE (equine serum),59 ± 1 µM
same,H2O2 generation,[3]; 0.01 µM,restoring it to the untreated control levels; also recorded: strong reduction in H2O2 release
"C#CCCCOc1ccc2ccc(=O)oc2c1 [Compound 8, 7-(Pent-4-yn-1-yloxy)-2H-chromen-2-one]",Ki,hCA I,> 10 µM
same,Ki,hCA II,> 10 µM
same,Ki,hCA VII,0.0693 µM
same,Ki,hCA IX,0.0266 µM
same,Ki,hCA XII; mean of 3 different assays,0.0065 µM
same,IC50,hMAO-A,5.7 ± 0.21 µM
same,IC50,hMAO-B,0.51 ± 0.0099 µM
same,IC50,AChE (electric eel),> 100 µM
same,IC50,BuChE (equine serum),> 100 µM
same,cell metabolic activity (MTT) versus LPS only control,[2],able to counteract the LPS-induced increase in cell metabolic activity
"C#CCCCCOc1ccc2ccc(=O)oc2c1 [Compound 9, 7-(Hex-5-yn-1-yloxy)-2H-chromen-2-one]",Ki,hCA I,> 10 µM
same,Ki,hCA II,> 10 µM
same,Ki,hCA VII,0.0771 µM
same,Ki,hCA IX,0.0313 µM
same,Ki,hCA XII; mean of 3 different assays,0.0059 µM
same,Ki,hMAO-A; Lineweaver-Burk plots,0.146 µM
same,hMAO-A inhibition mechanism,hMAO-A; Lineweaver-Burk plots,competitive inhibition mechanism
same,IC50,hMAO-A,0.65 ± 0.027 µM
same,SI (selectivity index for hMAO-B over hMAO-A),hMAO-B,92.8
same,Ki,hMAO-B; Lineweaver-Burk plots,0.0023 µM
same,hMAO-B inhibition mechanism,hMAO-B; Lineweaver-Burk plots,competitive inhibition mechanism
same,IC50,hMAO-B,0.007 ± 0.00035 µM
same,inhibition at 100 µM,AChE (electric eel),50%
same,IC50,BuChE (equine serum),51 ± 4 µM
same,cell metabolic activity (MTT) versus LPS only control,[2],able to counteract the LPS-induced increase in cell metabolic activity
same,H2O2 generation,[3]; 10 µM,restoring it to the untreated control levels
same,IL-6 secretion,[1],decreases the amount of the cytokine at 0.01 and 10 µM
"C#CCN(C)C(C)Cc1ccccc1 (stereo not shown) [DEP, deprenyl, reference compound]",IL-6 secretion,[1],increases the amount of IL-6 at the highest concentration tested
